Test results: patent publication US20160038519A1, “ADMINISTRATION OF KARENITECIN FOR THE TREATMENT OF ADVANCED OVARIAN CANCER, INCLUDING CHEMOTHERAPY-RESISTANT AND/OR THE MUCINOUS ADENOCARCINOMA SUB-TYPES” (BioNumerik Pharmaceuticals, Inc., priority 2014, published 2016)
≈ marks a conversion by molar mass, not a printed value. Where two headings read alike, the source gives them in different places.

Tests used:
[1] = molecular target: T1, Breast Cancer Resistance Protein (BCRP) (Homo sapiens, UniProt Q9UNQ0); conditions: cited from earlier work
T1 sequence (Q9UNQ0 1-655): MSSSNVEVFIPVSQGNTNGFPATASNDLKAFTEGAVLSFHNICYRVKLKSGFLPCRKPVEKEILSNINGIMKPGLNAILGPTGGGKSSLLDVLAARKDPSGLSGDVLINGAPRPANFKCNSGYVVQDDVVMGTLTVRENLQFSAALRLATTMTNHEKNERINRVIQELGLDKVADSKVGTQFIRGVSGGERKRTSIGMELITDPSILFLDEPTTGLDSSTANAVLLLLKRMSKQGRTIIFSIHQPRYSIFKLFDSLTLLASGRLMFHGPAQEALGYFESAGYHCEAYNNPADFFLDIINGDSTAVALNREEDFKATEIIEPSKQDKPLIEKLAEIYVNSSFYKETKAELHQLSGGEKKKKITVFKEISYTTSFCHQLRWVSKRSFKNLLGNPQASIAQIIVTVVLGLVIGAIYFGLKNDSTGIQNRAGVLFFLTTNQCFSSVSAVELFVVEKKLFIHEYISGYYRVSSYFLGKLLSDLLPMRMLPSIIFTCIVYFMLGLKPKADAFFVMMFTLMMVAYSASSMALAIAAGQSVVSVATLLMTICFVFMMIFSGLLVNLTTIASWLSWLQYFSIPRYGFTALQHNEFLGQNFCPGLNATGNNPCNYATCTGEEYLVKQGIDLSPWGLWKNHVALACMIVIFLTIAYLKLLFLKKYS

[2] = Limit of solubility in cell culture medium; type: physicochemical; conditions: aqueous buffer
Protocol: (§1) The 1050 values exceeded the solubility in medium for each compound—the limit of solubility in cell culture medium for the compounds were as follows: 2 micromolar for BNP1350 and SN38, and 20 micromolar for Topotecan. Cells were treated for periods of 2.5 hours or 6 hours and, in each case, the […] values were not reached. Longer treatments were not performed.

COV644 Cell Line = assay: SRB cytotoxicity assay, COV644; type: cell-based, human
Protocol: (§2) In vitro studies were conducted in human mucinous ovarian cancer cell lines including JHOM2B, OMC3, and COV644. In one series of experiments, the dose response curves for BNP1350 (also known as Karenitecin), SN-38 (Irinotecan), and Topotecan were obtained and IC50 values were determined. In a second series of experiments, the effect of BNP7787 (2,2′-dithio-bis-ethane sulfonate; Tavocept) on BNP1350-induced cytotoxicity at selected BNP1350 concentrations was examined.
(§3) The JHOM2B and OMC3 cell lines were purchased from Riken Cell Bank (Japan). The COV644 cell line was purchased from SigmaAldrich. Cells were maintained as monolayered cultures in T-75 flasks and then seeded to microtiter plate wells for experiments. Population doubling-times for these three cell lines were long (i.e., exceeding 40 hours, and for some of the cell lines approaching 96 hours); therefore, the Applicants conducted initial pilot experiments and determined optimal seeding density to obtain A570 values in untreated controls that would fall within the linear range of the SRB assay after seven (7) total days of cell growth. JHOM2B cells were cultured in DMEM:F12 (1:1)+0.1 mM non-essential amino acids (NEAA)+10% FBS and were seeded at 6,000 cells per well. OMC3 cells were cultured in HamF12+10% FBS and were seeded at 8,000 cells per well. COV644 cells were cultured in DMEM+2 mM glutamine+10% FBS and were seeded at 6,000 cells per well.
(§4) The cells were manipulated in a Microzone laminar flow hood traditionally used for maintaining aseptic environments around automated instrumentation such as microplate robots, and the like. Cells were grown and maintained at 37° C. in a humidified atmosphere containing 5% CO2 in a water jacketed cell culture incubator (Forma Scientific). Cells were counted using a ViCell counter (Beckman-Coulter). An automated plate washer/stacker (ELx405/BioStak from BioTek Instruments) and a microplate reader (SpectraMax Plus from Molecular Devices) were used for conducting the SRB assay and determining A570 values for wells in the plates and the percentage of control values. Prior to SRB assays, cell viability was monitored by evaluation of microtiter plate wells. Dead cells detach and float while living cells remain attached to the bottom of the cell well.
(§5) SN-38 (Irinotecan; Sigma H0165, lot MKBQ4981) and Topotecan (Sigma T2705, lot 052M4728V) were purchased from SigmaAldrich. BNP1350 (lot KN-C192-135) and BNP7787 (lot 205001) were synthesized at BioNumerik Pharmaceuticals, Inc. (San Antonio, Tex.). BNP1350, SN38, and Topotecan were prepared as 2.5, 2.5, and 25 mM stocks in DMSO (ATCC, cell culture grade).
(§6) The sulforhodamine B (SRB) cytotoxicity assay was used to assess cell survival. Briefly, after the medium was decanted from individual plate wells, trichloroacetic acid (100 μL of 10.0 percent solution) was added to each well, and the plates were incubated at 4° C. for 1 hour. The plates were washed five times with water using an automated microplate washer (Model ELx405, Bio-Tek Instruments), SRB solution (100 μL of 0.4% SRB dissolved in 1.0 percent acetic acid) was added, and plates remained at room temperature for 15 minutes. The plates were then washed five times using acetic acid (1.0 percent), air dried, and bound dye was solubilized in Tris base (150 μL, 10 mM). Plates were agitated (gently) for 5 minutes and the absorbance values of the SRB dye-protein adduct at 570 nanometers (A570) were determined using an automated microtiter plate reader (SpectraMax Plus, Molecular Devices). IC50 values were extrapolated from dose response curves of the data using OriginLab Software.
as §1

OMC3 Cell Line = assay: SRB cytotoxicity assay, OMC3; type: cell-based, human; conditions: Homo sapiens
Protocol: as §2, §3, §4, §5, §6

CC[C@@]1(O)C(=O)OCc2c1cc1n(c2=O)Cc2c-1nc1ccccc1c2CC[Si](C)(C)C [Karenitecin, (4S)-4-ethyl-4-hydroxy-11-[2-(trimethylsilyl)ethyl]-1H-pyrano[3′:4′:6,7]indolizino[1,2-b]quinoline-3,14(4H,12H)-dione]
Sensitivity to tumor-mediated drug resistance mechanisms, including BCRP [1]: insensitive
solubility [2]: 2 µM (≈ 0.897 µg/mL)
IC50 (COV644 Cell Line; Homo sapiens, 2, 5, and 6 hour drug exposures, did not reach 50% of Control, read-out: IC50, Test 1 (2 replicate plates)): > 2000 nM
IC50 (COV644 Cell Line; Homo sapiens, 2, 5, and 6 hour drug exposures, did not reach 50% of Control, read-out: IC50, Test 2 (2 to 3 replicate plates)): > 2000 nM
IC50 (COV644 Cell Line; Homo sapiens, 2, 5, and 6 hour drug exposures, read-out: IC50, Average): > 2000 nM
IC50 (COV644 Cell Line; Homo sapiens, read-out: IC50 values): > 2000 nM
IC50 (OMC3 Cell Line; 2 hour drug exposure, average of Test 1 and Test 2, read-out: IC50, Average): 49.5 nM
IC50 (OMC3 Cell Line; 2 hour drug exposure, read-out: IC50, Test 1 (2 replicate plates)): 57 ± 4 nM
IC50 (OMC3 Cell Line; 2 hour drug exposure, read-out: IC50, Test 2 (3 replicate plates)): 42 ± 6 nM
IC50 (OMC3 Cell Line; read-out: IC50 values): 49.5 nM
